Data on 27 compounds can be found in US20240199587A1, “HETEROCYCLIC COMPOUNDS” (Hoffmann-La Roche Inc., priority 2021, published 2024).

For this experiment, the target named is T1, MAGL (Homo sapiens, UniProt Q99685).
T1 sequence (Q99685 1-303): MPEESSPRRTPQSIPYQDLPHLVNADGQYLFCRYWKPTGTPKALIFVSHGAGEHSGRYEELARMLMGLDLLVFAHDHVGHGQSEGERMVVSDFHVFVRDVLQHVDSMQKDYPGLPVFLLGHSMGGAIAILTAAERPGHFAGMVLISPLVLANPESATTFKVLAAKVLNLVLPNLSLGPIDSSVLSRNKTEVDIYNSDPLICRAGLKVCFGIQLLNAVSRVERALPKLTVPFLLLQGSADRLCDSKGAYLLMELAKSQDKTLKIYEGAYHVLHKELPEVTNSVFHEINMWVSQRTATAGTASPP
The experiment in a line: 2-AG assay (MAGL inhibitory activity, hydrolysis of 2-arachidonoylglycerol to arachidonic acid followed by mass spectrometry). The format is biochemical. The conditions noted are these: 8 μM 2-arachidonoylglycerol, 15 min pre-incubation, 30 min incubation at RT, RapidFire MS readout. The method, boiled down:
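Arachidonic acid released from 8 μM 2-arachidonoylglycerol was quantified by online SPE triple-quadrupole MS (negative ESI, 303.1→259.1), normalised to d8-arachidonic acid internal standard. Reaction ran 30 min at RT after 15 min RT compound pre-incubation with […] MAGL in TRIS/EDTA/Tween-20 buffer, 2.5% DMSO.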
In the case of `O=C(N1CC2(CC(Cc3ccc(C(F)(F)F)nc3)C2)C1)N1CC2(CC(n3cnc(C4(O)CC4)n3)C2)C1` [Example 495, [6-[3-(1-hydroxycyclopropyl)-1,2,4-triazol-1-yl]-2-azaspiro[3.3]heptan-2-yl]-[6-[[6-(trifluoromethyl)-3-pyridyl]methyl]-2-azaspiro[3.3]heptan-2-yl]methanone], half-maximal inhibition (IC50) required 0.98 nM. With `O=C(N1CC(c2ccc(N3CC(C(F)(F)F)C3)nc2)C1)N1CC2(CC(n3cnc(C4(O)CC4)n3)C2)C1` [Example 496, [6-[3-(1-hydroxycyclopropyl)-1,2,4-triazol-1-yl]-2-azaspiro[3.3]heptan-2-yl]-[3-[6-[3-(trifluoromethyl)azetidin-1-yl]-3-pyridyl]azetidin-1-yl]methanone] the figure was 9.34 nM; with `O=C(N1CC2(CC(n3cnc(C4(O)CC4)n3)C2)C1)N1CC2(C1)CN(S(=O)(=O)c1cccc(OC(F)(F)F)c1)C2` [Example 497, [6-[3-(1-hydroxycyclopropyl)-1,2,4-triazol-1-yl]-2-azaspiro[3.3]heptan-2-yl]-[2-[3-(trifluoromethoxy)phenyl]sulfonyl-2,6-diazaspiro[3.3]heptan-6-yl]methanone], 84 nM. With `O=C(N1CC(OCc2cccc(S(=O)(=O)C(F)(F)F)c2)C1)N1CC2(CC(n3cnc(C4CC4)n3)C2)C1` [Example 498, [6-(3-cyclopropyl-1,2,4-triazol-1-yl)-2-azaspiro[3.3]heptan-2-yl]-[3-[[3-(trifluoromethylsulfonyl)phenyl]methoxy]azetidin-1-yl]methanone] the figure was 1.69 nM; with `O=C(N1CC(OCc2ccc(S(=O)(=O)C(F)(F)F)cc2)C1)N1CC2(CC(n3cnc(C4CC4)n3)C2)C1` [Example 499, [6-(3-cyclopropyl-1,2,4-triazol-1-yl)-2-azaspiro[3.3]heptan-2-yl]-[3-[[4-(trifluoromethylsulfonyl)phenyl]methoxy]azetidin-1-yl]methanone], 4.38 nM.

`CS(=O)(=O)c1ccc(CN2CC3(C2)CN(C(=O)N2CC4(CC(n5cnc(C6CC6)n5)C4)C2)C3)cc1` [Example 500, [6-(3-cyclopropyl-1,2,4-triazol-1-yl)-2-azaspiro[3.3]heptan-2-yl]-[6-[(4-methylsulfonylphenyl)methyl]-2,6-diazaspiro[3.3]heptan-2-yl]methanone]: it took 39.6 nM to reach half-maximal inhibition (IC50).

`CS(=O)(=O)c1cccc(CN2CC3(C2)CN(C(=O)N2CC4(CC(n5cnc(C6CC6)n5)C4)C2)C3)c1` [Example 501, [6-(3-cyclopropyl-1,2,4-triazol-1-yl)-2-azaspiro[3.3]heptan-2-yl]-[6-[(3-methylsulfonylphenyl)methyl]-2,6-diazaspiro[3.3]heptan-2-yl]methanone]: it took 6.74 nM to reach half-maximal inhibition (IC50). To `CS(=O)(=O)c1ccccc1CN1CC2(C1)CN(C(=O)N1CC3(CC(n4cnc(C5CC5)n4)C3)C1)C2` [Example 502, [6-(3-cyclopropyl-1,2,4-triazol-1-yl)-2-azaspiro[3.3]heptan-2-yl]-[6-[(2-methylsulfonylphenyl)methyl]-2,6-diazaspiro[3.3]heptan-2-yl]methanone] belongs 12.1 nM; to `NC(=O)C1CC(F)(F)CCN1c1ccc(C2CN(C(=O)N3CC4(CC(n5cnc(C6CC6)n5)C4)C3)C2)cc1` (stereo not drawn) [Example 503, 1-[4-[1-[6-(3-cyclopropyl-1,2,4-triazol-1-yl)-2-azaspiro[3.3]heptane-2-carbonyl]azetidin-3-yl]phenyl]-4,4-difluoro-piperidine-2-carboxamide], 1.53 nM; to `CC1(O)CN(c2ccc(C3CN(C(=O)N4CC5(CC(n6cnc(C7CC7)n6)C5)C4)C3)cn2)C1` [Example 504, [6-(3-cyclopropyl-1,2,4-triazol-1-yl)-2-azaspiro[3.3]heptan-2-yl]-[3-[6-(3-hydroxy-3-methyl-azetidin-1-yl)-3-pyridyl]azetidin-1-yl]methanone], 13.9 nM.

`O=C(N1CC(c2ccc(NC3CCS(=O)(=O)C3)nc2)C1)N1CC2(CC(n3cnc(C4CC4)n3)C2)C1` (stereo not drawn) [Example 505, [6-(3-cyclopropyl-1,2,4-triazol-1-yl)-2-azaspiro[3.3]heptan-2-yl]-[3-[6-[(1,1-dioxothiolan-3-yl)amino]-3-pyridyl]azetidin-1-yl]methanone]: the IC50 – broadly, the concentration that inhibits the measured activity by half – is 32.3 nM. To `O=C(N1CCC(Oc2cccc(F)c2)CC1)N1CC2(CC(n3cnc(C4CC4)n3)C2)C1` [Example 506, [6-(3-cyclopropyl-1,2,4-triazol-1-yl)-2-azaspiro[3.3]heptan-2-yl]-[4-(3-fluorophenoxy)-1-piperidyl]methanone] belongs 75.6 nM.

`O=C(N1CC(c2ccc(C3CCC3)cc2)C1)N1CC2(CC(n3cnc(C4CC4)n3)C2)C1` [Example 507, [3-(4-cyclobutylphenyl)azetidin-1-yl]-[6-(3-cyclopropyl-1,2,4-triazol-1-yl)-2-azaspiro[3.3]heptan-2-yl]methanone] gave an IC50 of 0.51 nM. To `Cc1cccc(F)c1CCC1CN(C(=O)N2CC3(CC(n4cnc(C5CC5)n4)C3)C2)C1` [Example 508, [6-(3-cyclopropyl-1,2,4-triazol-1-yl)-2-azaspiro[3.3]heptan-2-yl]-[3-[2-(2-fluoro-6-methyl-phenyl)ethyl]azetidin-1-yl]methanone] belongs 651 nM; to `O=C(N1CC(/C=C/c2cccc(F)c2)C1)N1CC2(CC(n3cnc(C4CC4)n3)C2)C1` [Example 509, [6-(3-cyclopropyl-1,2,4-triazol-1-yl)-2-azaspiro[3.3]heptan-2-yl]-[3-[(E)-2-(3-fluorophenyl)vinyl]azetidin-1-yl]methanone], 40.9 nM; to `O=C(N1CC2(CC(n3cnc(C4CC4)n3)C2)C1)N1CC2(CC(n3cnc(C4CC4)n3)C2)C1` [Example 510, bis[6-(3-cyclopropyl-1,2,4-triazol-1-yl)-2-azaspiro[3.3]heptan-2-yl]methanone], 4.57 nM. To `O=C(N1CC2(CCC(Cc3ccc(OC(F)F)nc3)CC2)C1)N1CC2(CC(c3cncc(F)c3)C2)C1` [Example 511, [7-[[6-(difluoromethoxy)-3-pyridyl]methyl]-2-azaspiro[3.5]nonan-2-yl]-[6-(5-fluoro-3-pyridyl)-2-azaspiro[3.3]heptan-2-yl]methanone] belongs 168 nM. To `O=C(N1CC(Oc2ccc(C(F)(F)F)c(C3CC3)c2)C1)N1CC2(CC(c3cncc(F)c3)C2)C1` [Example 512] belongs 356 nM; to `O=C(N1CC(OCc2ccc(F)cc2Cl)C1)N1CC2(CC(c3cncc(F)c3)C2)C1` [Example 513, [3-[(2-chloro-4-fluoro-phenyl)methoxy]azetidin-1-yl]-[6-(5-fluoro-3-pyridyl)-2-azaspiro[3.3]heptan-2-yl]methanone], 2370 nM. With `O=C(N1CC(NCc2ccc(C(F)(F)F)cc2Cl)C1)N1CC2(CC(c3cncc(F)c3)C2)C1` [Example 514, [3-[[2-chloro-4-(trifluoromethyl)phenyl]methylamino]azetidin-1-yl]-[6-(5-fluoro-3-pyridyl)-2-azaspiro[3.3]heptan-2-yl]methanone], the IC50 was 88.6 nM. To `O=C(N1CC2(CC(Cc3ccc(C(F)(F)F)nc3)C2)C1)N1CC2(CC(c3cncc(F)c3)C2)C1` [Example 515, [6-(5-fluoro-3-pyridyl)-2-azaspiro[3.3]heptan-2-yl]-[6-[[6-(trifluoromethyl)-3-pyridyl]methyl]-2-azaspiro[3.3]heptan-2-yl]methanone] belongs 95.8 nM; to `O=C(N1CC2(CCC(Cc3ccc(F)cn3)CC2)C1)N1CC2(CC(c3ccc(C(F)(F)F)nc3)C2)C1` [Example 516, [7-[(5-fluoro-2-pyridyl)methyl]-2-azaspiro[3.5]nonan-2-yl]-[6-[6-(trifluoromethyl)-3-pyridyl]-2-azaspiro[3.3]heptan-2-yl]methanone], 699 nM.

`O=C(N1CC2(CCC(Cc3ccc(Cl)cn3)CC2)C1)N1CC2(CC(c3ccc(C(F)(F)F)nc3)C2)C1` [Example 517, [7-[(5-chloro-2-pyridyl)methyl]-2-azaspiro[3.5]nonan-2-yl]-[6-[6-(trifluoromethyl)-3-pyridyl]-2-azaspiro[3.3]heptan-2-yl]methanone]: it took 299 nM to reach half-maximal inhibition (IC50). To `COc1cc(C(F)(F)F)ccc1CNC1CN(C(=O)N2CC3(CC(c4ccc(C(F)(F)F)nc4)C3)C2)C1` [Example 518, [3-[[2-methoxy-4-(trifluoromethyl)phenyl]methylamino]azetidin-1-yl]-[6-[6-(trifluoromethyl)-3-pyridyl]-2-azaspiro[3.3]heptan-2-yl]methanone] belongs 610 nM. To `O=C(N1CC2(CC(Cc3cnc(C(F)(F)F)cn3)C2)C1)N1CC2(CC(c3ccc(C(F)(F)F)nc3)C2)C1` [Example 519, [6-[[5-(trifluoromethyl)pyrazin-2-yl]methyl]-2-azaspiro[3.3]heptan-2-yl]-[6-[6-(trifluoromethyl)-3-pyridyl]-2-azaspiro[3.3]heptan-2-yl]methanone] belongs 154 nM; to `O=C(N1CC(OCc2ccc(S(=O)(=O)C(F)(F)F)cc2)C1)N1CC2(CC(c3ccc(C(F)(F)F)nc3)C2)C1` [Example 520, [6-[6-(trifluoromethyl)-3-pyridyl]-2-azaspiro[3.3]heptan-2-yl]-[3-[[4-(trifluoromethylsulfonyl)phenyl]methoxy]azetidin-1-yl]methanone], 544 nM; to `O=C(N1CC2(CCC(Cc3ccc(OC(F)F)nc3)CC2)C1)N1CC2(CC(c3ccc(C(F)(F)F)nc3)C2)C1` [Example 521, [7-[[6-(difluoromethoxy)-3-pyridyl]methyl]-2-azaspiro[3.5]nonan-2-yl]-[6-[6-(trifluoromethyl)-3-pyridyl]-2-azaspiro[3.3]heptan-2-yl]methanone], 379 nM.
